This note sets out measurements from patent US20250340561A1, “QUINAZOLINE COMPOUND FOR INDUCING DEGRADATION OF G12D MUTANT KRAS PROTEIN” (Astellas Pharma Inc., priority 2021, published 2025).

Where a name gives a salt, the structure may show the parent alone.

The first assay deals with T1, KRAS G12D (Homo sapiens, UniProt P01116, G12D).
T1 construct: host or cells: AsPC-1 human pancreatic cancer cells
T1 sequence (P01116 1-188 isoform P01116-2 G12D): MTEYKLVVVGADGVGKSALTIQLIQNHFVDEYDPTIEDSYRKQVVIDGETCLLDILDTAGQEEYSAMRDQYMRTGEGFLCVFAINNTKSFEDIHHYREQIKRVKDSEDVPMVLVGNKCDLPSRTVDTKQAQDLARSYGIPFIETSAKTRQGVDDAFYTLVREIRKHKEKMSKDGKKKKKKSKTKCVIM
The experiment in a line: Test Example 1-1: KRAS degradation action in AsPC-1, sandwich ELISA. Format: cell-based. The settings on record: AsPC-1 cells, 24 hours treatment, corrected with β-actin, 0% = 10 μM Example No. 7. On the procedure:
Test Example 1-1: Evaluation of KRAS Degradation Action on Human G12D Mutant KRAS-Positive Pancreatic Cancer Line AsPC-1
The KRAS degradation action of test compounds was evaluated by measuring the expression levels of KRAS G12D by a sandwich ELISA method.
AsPC-1 cells (ATCC, CRL-1682) were seeded at 90 μL per well on a 96-well plate (from IWAKI) to give 1.8×10^4 cells per well. As for the cell culture conditions, RPMI 1640 medium (from Merck) containing 10% fetal bovine serum (from Cytiva) was used in the presence of 5% CO2 at 37° C.
The next day, the test compounds (10 points having final concentrations in the range of 10 μM to 0.3 nM) were diluted 100-fold with a fresh medium and were added at 10 μL per well. The same treatments were each applied to 4 wells. In addition, in production of the sandwich ELISA plate, a capture antibody (anti-KRAS antibody, from LS Bio) mixed in Phosphate Buffered Saline [PBS; from FUJIFILM Wako Pure Chemical Corporation] in 1,000-fold dilution was added at 20 μL per well to a Maxisorp 384-well plate (from Thermo Scientific), and after attaching a seal, the plate was allowed to stand at 4° C. overnight.
After 24 hours of the test compound treatment, the culture supernatant was discarded. Immediately, a cytolytic solution (produced by adding, to a RIPA buffer [from Thermo Scientific], a Halt Protease Phosphatese Inhibitor Cocktail [from Thermo Scientific] and Benzonase Nuclease [from Merck] in amounts of 1/100 and 1/500, respectively) was added at 50 μL per well, and the cells were lysed. Then, equally treated 4 wells were combined to prepare a cell lysate sample of 200 μL in total. For KRAS detection, the Maxisorp 384-well plate which had been treated with the capture antibody since the previous day was washed (twice with 25 μL each) with 0.05% Tween-20-containing PBS (from Thermo Scientific; 20×PBS Tween-20 was diluted 20-fold with ion exchange water and used) and was treated with a blocking solution (Intercept Blocking Buffer; from LI-COR Biosciences) for 60 minutes, and then, the cell lysate samples were added at 20 μL per well. For 3-actin detection, the cell lysate samples were added as they were at 20 μL per well to the Maxisorp 384-well plate, and after attaching a seal, the plate was allowed to stand at 4° C. overnight.
The next day, after washing the KRAS detection plate with 0.05% Tween-20-containing PBS, an anti-Ras (G12D mutant specific) antibody (from Cell Signaling Technology) diluted 1,000-fold with a blocking solution was added at 20 μL per well as a detection antibody, and the plate was allowed to stand for 5 hours at room temperature. Then, the plate was centrifuged to remove the supernatant (using a centrifugal dehydrator machine, the supernatant was removed by the same method hereinafter) and was washed with 0.05% Tween-20-containing PBS. Then, an anti-Rabbit IgG […] antibody (from Cell Signaling Technology) diluted 1,000-fold with a blocking solution was added at 20 μL per well as a secondary antibody, and the plate was allowed to stand for 1 hour at room temperature. The plate was centrifuged to remove the supernatant and was washed with 0.05% Tween-20-containing PBS. Then, a BM chemiluminescent ELISA substrate (from Merck) was added at 20 μL per well, and the amounts of luminescence were measured with 2103 EnVision (from PerkinElmer). In addition, the 3-actin detection plate was washed with 0.05% Tween-20-containing PBS and was treated with a blocking solution for 60 minutes, and then, an anti-β-actin antibody (from Abcam) diluted 1,000-fold with a blocking solution was added at 20 μL per well as a detection antibody. The plate was allowed to stand for 5 hours at room temperature. Then, the plate was centrifuged to remove the supernatant and washed with 0.05% Tween-20-containing PBS, and then, an anti-Mouse IgG RP-linked antibody (from Cell Signaling Technology) diluted 1,000-fold with a blocking solution was added at 20 μL per well as a secondary antibody. […]
On to `Cc1c(F)cc2[nH]ncc2c1-c1c(C2CC2)cc2c(N3C[C@@H]4C[C@H]3CN4)nc(OC3CCOCC3)nc2c1OCc1ccc(-c2cn([C@H](C(=O)N3C[C@H](O)C[C@H]3C(=O)N[C@@H](CO)c3ccc(-c4ccnn4C)cc3)C(C)C)nn2)cc1` [Example 23], for which the DC50 (in general, the midpoint of the concentration-degradation curve) came to 34 nM.

Take `Cc1c(F)cc2[nH]ncc2c1-c1c(C2CC2)cc2c(N3C[C@@H]4C[C@H]3CN4)nc(OC3CCOCC3)nc2c1OCc1ccc(-c2cn([C@H](C(=O)N3C[C@H](O)C[C@H]3C(=O)N[C@@H](CO)c3ccc(-c4ccnn4C)cc3)C(C)C)nn2)cc1` [Example 22]: half-maximal degradation (DC50) was put at 62 nM.

For `Cc1ncsc1-c1ccc([C@H](CO)NC(=O)[C@@H]2C[C@@H](O)CN2C(=O)[C@H](C(C)C)n2cc(-c3ccc(COc4c(-c5c(C)c(F)cc6[nH]ncc56)c(C5CC5)cc5c(N6C[C@@H]7C[C@H]6CN7)nc(OC6CCN(CC(F)F)CC6)nc45)cc3)nn2)cc1` [Example 21], the DC50 was 72 nM.

Consider `Cc1ncsc1-c1ccc([C@@H](NC(=O)[C@@H]2C[C@@H](O)CN2C(=O)[C@H](C(C)C)n2cc(-c3ccc(COc4c(-c5c(C)c(F)cc6[nH]ncc56)c(C5CC5)cc5c(N6C[C@@H]7C[C@H]6CN7)nc(OC6CCOCC6)nc45)cc3)nn2)C(F)F)cc1` [Example 16], for which it took 188 nM to reach half-maximal degradation (DC50).

In the case of `Cc1ncsc1-c1ccc(C2(NC(=O)[C@@H]3C[C@@H](O)CN3C(=O)[C@@H](NC(=O)c3ccc(COc4c(-c5c(C)c(F)cc6[nH]ncc56)c(C5CC5)cc5c(N6C[C@@H]7C[C@H]6CN7)nc(OC6CCOCC6)nc45)cn3)C(C)C)CC2)cc1` [Example 2], it took 598 nM to reach half-maximal degradation (DC50).

As for `Cc1ncsc1-c1ccc([C@H](CO)NC(=O)[C@@H]2C[C@@H](O)CN2C(=O)[C@@H](NC(=O)c2ccc(COc3c(-c4c(C)c(F)cc5[nH]ncc45)c(C4CC4)cc4c(N5C[C@@H]6C[C@H]5CN6)nc(OC5CCOCC5)nc34)cc2)C(C)C)cc1` [Example 3], the DC50 was found to be 140 nM.

In turn, `CCn1nccc1-c1ccc([C@H](CO)NC(=O)[C@@H]2C[C@@H](O)CN2C(=O)[C@H](C(C)C)n2cc(-c3ccc(COc4c(-c5c(C)c(F)cc6[nH]ncc56)c(C5CC5)cc5c(N6C[C@@H]7C[C@H]6CN7)nc(OC6CCOCC6)nc45)cc3)nn2)cc1` [Example 26] displayed a DC50 of 24 nM. This DC50 lies about 5.8-fold lower than the previous one.

In the case of `Cc1c(F)cc2[nH]ncc2c1-c1c(C2CC2)cc2c(N3C[C@@H]4C[C@H]3CN4)nc(OC3CCOCC3)nc2c1OCc1ccc(-c2cn([C@H](C(=O)N3C[C@H](O)C[C@H]3C(=O)N[C@@H](CO)c3ccc(F)cc3)C(C)C)nn2)cc1` [Example 13], it took 151 nM to reach half-maximal degradation (DC50).

`Cc1c(F)cc2[nH]ncc2c1-c1c(C2CC2)cc2c(N3C[C@@H]4C[C@H]3CN4)nc(OC3CCOCC3)nc2c1OCc1ccc(-c2cn([C@H](C(=O)N3C[C@H](O)C[C@H]3C(=O)N[C@@H](CO)c3ccccc3)C(C)C)nn2)cc1` (atropisomer, axis not shown) [Example 14] came in with a DC50 of 221 nM.

Regarding `Cc1ncsc1-c1ccc([C@H](CN(C)C)NC(=O)[C@@H]2C[C@@H](O)CN2C(=O)[C@H](C(C)C)n2cc(-c3ccc(COc4c(-c5c(C)c(F)cc6[nH]ncc56)c(C5CC5)cc5c(N6C[C@@H]7C[C@H]6CN7)nc(OC6CCOCC6)nc45)cc3)nn2)cc1` [Example 19], the DC50 came out at 139 nM.

As to `Cc1ncsc1-c1ccc([C@H](CF)NC(=O)[C@@H]2C[C@@H](O)CN2C(=O)[C@H](C(C)C)n2cc(-c3ccc(COc4c(-c5c(C)c(F)cc6[nH]ncc56)c(C5CC5)cc5c(N6C[C@@H]7C[C@H]6CN7)nc(OC6CCOCC6)nc45)cc3)nn2)cc1` [Example 17], the DC50 amounted to 92 nM. This DC50 lies about 1.5-fold lower than the previous one.

`Cc1ncsc1-c1ccc([C@H](CO)NC(=O)[C@@H]2C[C@@H](O)CN2C(=O)[C@H](C(C)C)n2cc(-c3ccc(COc4c(-c5c(C)c(F)cc6[nH]ncc56)c(C5CC5)cc5c(N6C[C@@H]7C[C@H]6CN7)nc(OC6CCOCC6)nc45)cc3)nn2)cc1` [Example 8, (4R)-1-[(2S)-2-(4-{4-[({6-cyclopropyl-4-[(1S,4S)-2,5-diazabicyclo[2.2.1]heptan-2-yl]-7-(6-fluoro-5-methyl-1H-indazol-4-yl)-2-[(oxan-4-yl)oxy]quinazolin-8-yl}oxy)methyl]phenyl}-1H-1,2,3-triazol-1-yl)-3-methylbutanoyl]-4-hydroxy-N-{(1R)-2-hydroxy-1-[4-(4-methyl-1,3-thiazol-5-yl)phenyl]ethyl}-L-prolinamide] registered a DC50 of 37 nM. Compared with the last molecule, the DC50 is about 2.5-fold lower.

As for `Cc1ncsc1-c1ccc(CNC(=O)[C@@H]2C[C@@H](O)CN2C(=O)[C@H](C(C)C)n2cc(-c3ccc(COc4c(-c5c(C)c(F)cc6[nH]ncc56)c(C5CC5)cc5c(N6C[C@@H]7C[C@H]6CN7)nc(OC6CCOCC6)nc45)cc3)nn2)cc1` [Example 10], the DC50 amounted to 124 nM.

As for `Cc1ncsc1-c1ccc(C2(NC(=O)[C@@H]3C[C@@H](O)CN3C(=O)[C@H](C(C)C)n3cc(-c4ccc(COc5c(-c6c(C)c(F)cc7[nH]ncc67)c(C6CC6)cc6c(N7C[C@@H]8C[C@H]7CN8)nc(OC7CCOCC7)nc56)cc4)nn3)CC2)cc1` [Example 6], half-maximal degradation (DC50) was put at 103 nM. The DC50 values of the last two molecules are within 1.5-fold of each other.

In turn, `Cc1ncsc1-c1ccc([C@H](CO)NC(=O)[C@@H]2C[C@@H](O)CN2C(=O)C(C(C)C)n2cc(-c3ccc(COc4c(-c5c(C)c(F)cc6[nH]ncc56)c(C5CC5)cc5c(N6C[C@@H]7C[C@H]6CN7)nc(OC6CCOCC6)nc45)cc3)cn2)cc1` (single isomer, unassigned) [Example 11] had a DC50 of 178 nM. This DC50 is about 1.7-fold higher than that of the molecule before.

Molecule `Cc1c(F)cc2[nH]ncc2c1-c1c(C2CC2)cc2c(N3C[C@@H]4C[C@H]3CN4)nc(OC3CCOCC3)nc2c1OCc1ccc(-c2cn([C@H](C(=O)N3C[C@H](O)C[C@H]3C(=O)N[C@@H](CO)c3ccc(-c4scnc4CO)cc3)C(C)C)nn2)cc1` [Example 18, (4R)-1-[(2S)-2-(4-{4-[({6-cyclopropyl-4-[(1S,4S)-2,5-diazabicyclo[2.2.1]heptan-2-yl]-7-(6-fluoro-5-methyl-1H-indazol-4-yl)-2-[(oxan-4-yl)oxy]quinazolin-8-yl}oxy)methyl]phenyl}-1H-1,2,3-triazol-1-yl)-3-methylbutanoyl]-4-hydroxy-N-[(1R)-2-hydroxy-1-{4-[4-(hydroxymethyl)-1,3-thiazol-5-yl]phenyl}ethyl]-L-prolinamide n hydrochloride] gave a DC50 of 74 nM. This DC50 is about 2.4-fold lower than that of the molecule before.

`CCOc1nc(N2C[C@@H]3C[C@H]2CN3)c2cc(C3CC3)c(-c3c(C)c(F)cc4[nH]ncc34)c(OCc3ccc(C(=O)N[C@H](C(=O)N4C[C@H](O)C[C@H]4C(=O)N[C@@H](CO)c4ccc(-c5scnc5C)cc4)C(C)C)cc3)c2n1` [Example 5] came in with a DC50 of 153 nM.

Still in this assay, the particulars now being: AsPC-1 cells, 24 hours treatment, corrected with β-actin, 0% = 10 μM Example No. 7, hydrochloride.
In the case of `Cc1ncsc1-c1ccc([C@H](CO)NC(=O)[C@@H]2C[C@@H](O)CN2C(=O)[C@H](C(C)C)n2cc(-c3ccc(COc4c(-c5c(C)c(F)cc6[nH]ncc56)c(C5CC5)cc5c(N6C[C@@H]7C[C@H]6CN7)nc(OC6CCOCC6)nc45)cc3)nn2)cc1` [Example 7, (4R)-1-[(2S)-2-(4-{4-[({6-cyclopropyl-4-[(1S,4S)-2,5-diazabicyclo[2.2.1]heptan-2-yl]-7-(6-fluoro-5-methyl-1H-indazol-4-yl)-2-[(oxan-4-yl)oxy]quinazolin-8-yl}oxy)methyl]phenyl}-1H-1,2,3-triazol-1-yl)-3-methylbutanoyl]-4-hydroxy-N-{(1R)-2-hydroxy-1-[4-(4-methyl-1,3-thiazol-5-yl)phenyl]ethyl}-L-prolinamide n hydrochloride], the DC50 stood at 46 nM.
